The results in this text go back to ChEMBL document CHEMBL1139043, “Carbonic anhydrase inhibitors. Inhibition studies of the human secretory isoform VI with anions” (Bioorg Med Chem Lett, 2007).

The structures appear in SMILES notation.

The experiment has as its target Carbonic anhydrase 6 (Homo sapiens) (UniProt P23280).

Chain of Carbonic anhydrase 6 (Homo sapiens) (P23280 whole entry): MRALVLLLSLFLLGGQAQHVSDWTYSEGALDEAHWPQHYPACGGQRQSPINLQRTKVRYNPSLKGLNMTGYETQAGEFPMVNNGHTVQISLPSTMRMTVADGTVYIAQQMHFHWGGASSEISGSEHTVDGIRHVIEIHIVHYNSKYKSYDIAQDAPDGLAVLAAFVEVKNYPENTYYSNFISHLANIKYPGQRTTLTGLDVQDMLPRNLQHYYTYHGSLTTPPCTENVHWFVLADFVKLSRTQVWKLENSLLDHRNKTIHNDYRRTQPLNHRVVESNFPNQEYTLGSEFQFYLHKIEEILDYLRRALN
Description: Inhibition of full length human recombinant full length CA6 expressed in Escherichia coli BL21 by CO2 hydration method

`NS(=O)(=O)O`: the Kinact was 0.09 mM.

`O=[As](O)(O)c1ccccc1` yielded a Kinact of 13.9 mM.
